# Experimental data published in US20190292155A1, “THERAPEUTIC INHIBITORY COMPOUNDS” (LifeSci Pharmaceuticals, Inc., priority 2016, published 2019).
# Read-outs that look alike come from different tables or passages of the source.
# Target: T1, human complement factor D (Homo sapiens, UniProt P00746)
# T1 construct: purchased R&D Systems 1824-SE
# Experiment: In vitro enzyme inhibition of human complement factor D (Z-Lys-SBzl/DTNB, A405)
# Format: biochemical
# Procedure: The ability of the compounds disclosed herein to inhibit human complement factor D inhibitory activity was quantified according to the 12-step protocol provided below. • 1. Prepare assay buffer: 50 mM Tris/HCl, pH 7.5, 1 M NaCl. • 2. […] Then dilute the serial concentrations of Nafamostat Mesilate 20-fold in assay buffer. • 3. […] 0.5% DMSO was in each well finally. • 4. […] Add 10 μl diluted test compounds duplicated into the 96-well plate. […] 0.5% DMSO was in each well finally. • 6. Dilute 20 mM substrate Z-Lys-SBzl (Bachem, Cat# M-1300) to 200 μM in assay buffer with 200 μM DTNB (Sigma, Catalog# D8130). • 7. […] Add 40 μl diluted Complement Factor D in the 96-well plate. • 8. Positive control well contains Complement Factor D without test compound. Negative control well contains neither Complement Factor D nor test compound. Using assay buffer, bring the total volume of all controls to 50 al. • 9. Pre-incubate the plate for 5 min at room temperature. • 10. Add 50 μl of diluted substrate/DTNB mixture into each well. […] For kinetic reading: Immediately start measuring absorbance (A405 nm) continuously and record data every 30 sec for 60 min. • 12. Data analysis • Inhibition activity of compound was evaluated by IC50. IC50 was calculated according the dose-response curve of compound fitted using GraphPadPrism with “log(inhibitor)-response (variable slope)” equation. • % inhibition was calculated by using following equation:
# [formula] • Mean(NC): The average value of the negative control wells' A405 nm values. • Mean(PC): The average value of the positive control wells' A405 nm values.
# [1] = biochemical assay, substrate Z-Lys-SBzl, read-out: CFD IC50
# T1 sequence (P00746 26-253): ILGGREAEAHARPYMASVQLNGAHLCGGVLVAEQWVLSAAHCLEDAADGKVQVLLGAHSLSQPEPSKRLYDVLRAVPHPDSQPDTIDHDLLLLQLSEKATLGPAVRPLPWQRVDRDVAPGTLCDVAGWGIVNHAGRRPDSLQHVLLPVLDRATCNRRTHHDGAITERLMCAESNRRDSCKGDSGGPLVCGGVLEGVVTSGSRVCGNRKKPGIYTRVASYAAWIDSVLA
Compound,IC50 [1],IC50
"CC1CC1N(CC(=O)NCc1cccc(Cl)c1F)C(=O)Cn1nc(C(N)=O)c2ccccc21 (centres unmarked) [Example 63, 1-(2-((2-((3-chloro-2-fluorobenzyl)amino)-2-oxoethyl)(2-methylcyclopropyl)amino)-2-oxoethyl)-1H-indazole-3-carboxamide]",100 to 1000 nM,–
"NC(=O)c1nn(CC(=O)N(CC(=O)NCc2ccccc2F)C2CC2)c2ccccc12 [Example 115, 1-(2-(cyclopropyl(2-((2-fluorobenzyl)amino)-2-oxoethyl)amino)-2-oxoethyl)-1H-indazole-3-carboxamide]",1000 to 10000 nM,–
"CC(N(CC(=O)NCc1cccc(Cl)c1F)C(=O)Cn1nc(C(N)=O)c2ccccc21)C(F)(F)F (centres unmarked) [Example 67, 1-(2-((2-((3-chloro-2-fluorobenzyl)amino)-2-oxoethyl)(1,1,1-trifluoropropan-2-yl)amino)-2-oxoethyl)-1H-indazole-3-carboxamide]",100 to 1000 nM,–
"C[C@@H](C(=O)NCc1cccc(Cl)c1F)N(C)C(=O)Cn1nc(C(N)=O)c2ccccc21 [Example 3, (S)-1-(2-((1-((3-chloro-2-fluorobenzyl)amino)-1-oxopropan-2-yl)(methyl)amino)-2-oxoethyl)-1H-indazole-3-carboxamide]",1000 to 10000 nM,–
"NC(=O)c1nn(CC(=O)N(CC(=O)NCc2cc(Cl)c3cn[nH]c3c2)C2CC2)c2ccccc12 [Example 102, 1-(2-((2-(((4-chloro-1H-indazol-6-yl)methyl)amino)-2-oxoethyl)(cyclopropyl)amino)-2-oxoethyl)-1H-indazole-3-carboxamide]",1000 to 10000 nM,–
"COc1ccc(CNC(=O)CN(C(=O)Cn2nc(C(N)=O)c3ccccc32)C2CC2)cc1Cl [Example 125, 1-(2-((2-((3-chloro-4-methoxybenzyl)amino)-2-oxoethyl)(cyclopropyl)amino)-2-oxoethyl)-1H-indazole-3-carboxamide]",1000 to 10000 nM,–
"N#Cc1cc(Cl)c(F)c(CNC(=O)CN(C(=O)Cn2nc(C(N)=O)c3ccccc32)C2CC2)c1 [Example 90, 1-(2-((2-((3-chloro-5-cyano-2-fluorobenzyl)amino)-2-oxoethyl)(cyclopropyl)amino)-2-oxoethyl)-1H-indazole-3-carboxamide]",1000 to 10000 nM,–
"NC(=O)c1nn(CC(=O)N(CC(=O)NCc2cccc(F)c2F)C2CC2)c2ccccc12 [Example 132, 1-(2-(cyclopropyl(2-((2,3-difluorobenzyl)amino)-2-oxoethyl)amino)-2-oxoethyl)-1H-indazole-3-carboxamide]",100 to 1000 nM,–
"CCOC(=O)CC(C)N(CC(=O)NCc1cccc(Cl)c1F)C(=O)Cn1nc(C(N)=O)c2ccccc21 (centres unmarked) [Example 72, ethyl 3-(2-(3-carbamoyl-1H-indazol-1-yl)-N-(2-((3-chloro-2-fluorobenzyl)amino)-2-oxoethyl)acetamido)butanoate]",100 to 1000 nM,–
"NCc1ccc2c(C(N)=O)nn(CC(=O)N(CC(=O)NCc3cccc(Cl)c3F)C3CC3)c2c1 [Example 89, 6-(aminomethyl)-1-(2-((2-((3-chloro-2-fluorobenzyl)amino)-2-oxoethyl)(cyclopropyl)amino)-2-oxoethyl)-1H-indazole-3-carboxamide]",1000 to 10000 nM,–
"NC(=O)c1nn(CC(=O)N(CC(=O)NCc2cccc(Cl)c2F)C2CC2)c2cccc(F)c12 [Example 97, 1-(2-((2-((3-chloro-2-fluorobenzyl)amino)-2-oxoethyl)(cyclopropyl)amino)-2-oxoethyl)-4-fluoro-1H-indazole-3-carboxamide]",1000 to 10000 nM,–
"NC(=O)c1nn(CC(=O)N(CC(=O)NCc2ccc(Cl)c(Cl)c2)C2CC2)c2ccccc12 [Example 104, 1-(2-(cyclopropyl(2-((3,4-dichlorobenzyl)amino)-2-oxoethyl)amino)-2-oxoethyl)-1H-indazole-3-carboxamide]",1000 to 10000 nM,–
"NC(=O)c1nn(CC(=O)N(CC(=O)NCc2cccc(Cl)c2F)C(CC(=O)O)C(F)(F)F)c2ccccc12 (centres unmarked) [Example 79, 3-(2-(3-carbamoyl-1H-indazol-1-yl)-N-(2-((3-chloro-2-fluorobenzyl)amino)-2-oxoethyl)acetamido)-4,4,4-trifluorobutanoic acid]",1000 to 10000 nM,–
"COc1c(Cl)cccc1CNC(=O)CN(C(=O)Cn1nc(C(N)=O)c2ccccc21)C1CC1 [Example 116, 1-(2-((2-((3-chloro-2-methoxybenzyl)amino)-2-oxoethyl)(cyclopropyl)amino)-2-oxoethyl)-1H-indazole-3-carboxamide]",1000 to 10000 nM,–
"NC(=O)c1nn(CC(=O)N(CC(=O)NCc2cccc(Cl)c2F)c2ccccc2)c2ccccc12 [Example 36, 1-(2-((2-((3-chloro-2-fluorobenzyl)amino)-2-oxoethyl)(phenyl)amino)-2-oxoethyl)-1H-indazole-3-carboxamide]",1000 to 10000 nM,–
"CNCCN(CC(=O)Nc1cccc(Cl)n1)C(=O)Cn1nc(C(N)=O)c2ccccc21 [Example 23, 1-(2-((2-((6-chloropyridin-2-yl)amino)-2-oxoethyl)(2-(methylamino)ethyl)amino)-2-oxoethyl)-1H-indazole-3-carboxamide]",1000 to 10000 nM,–
"CC(=O)NCCN(CC(=O)Nc1cccc(Cl)n1)C(=O)Cn1nc(C(N)=O)c2ccccc21 [Example 24, 1-(2-((2-acetamidoethyl)(2-((6-chloropyridin-2-yl)amino)-2-oxoethyl)amino)-2-oxoethyl)-1H-indazole-3-carboxamide]",1000 to 10000 nM,–
"O=C(CN(C(=O)Cn1nc(-c2ncc[nH]2)c2ccccc21)C1CC1)NCc1cccc(Cl)c1F [Example 98, 2-(3-(1H-imidazol-2-yl)-1H-indazol-1-yl)-N-(2-((3-chloro-2-fluorobenzyl)amino)-2-oxoethyl)-N-cyclopropylacetamide]",1000 to 10000 nM,–
"NC(=O)c1nn(CC(=O)N(CC(=O)NCc2cccc(Cl)c2F)C2CC2)cc1Br [Example 46, 4-bromo-1-(2-((2-((3-chloro-2-fluorobenzyl)amino)-2-oxoethyl)(cyclopropyl)amino)-2-oxoethyl)-1H-pyrazole-3-carboxamide]",1000 to 10000 nM,–
"N#Cc1cccc(CNC(=O)CN(C(=O)Cn2nc(C(N)=O)c3ccccc32)C2CC2)c1F [Example 123, 1-(2-((2-((3-cyano-2-fluorobenzyl)amino)-2-oxoethyl)(cyclopropyl)amino)-2-oxoethyl)-1H-indazole-3-carboxamide]",1000 to 10000 nM,–
"NC(=O)c1nn(CC(=O)N(CC(=O)Nc2cccc(Cl)n2)C2CCNCC2)c2ccccc12 [Example 17, 1-(2-((2-((6-chloropyridin-2-yl)amino)-2-oxoethyl)(piperidin-4-yl)amino)-2-oxoethyl)-1H-indazole-3-carboxamide]",1000 to 10000 nM,–
"NC(=O)c1nn(CC(=O)N(CC(=O)NCc2cncc(Cl)c2)C2CC2)c2ccccc12 [Example 130, 1-(2-((2-(((5-chloropyridin-3-yl)methyl)amino)-2-oxoethyl)(cyclopropyl)amino)-2-oxoethyl)-1H-indazole-3-carboxamide]",1000 to 10000 nM,–
"NC(=O)c1nc(NC(=O)N(CC(=O)NCc2cccc(Cl)c2F)C2CC2)n2ccccc12 [Example 140, 3-(3-(2-((3-chloro-2-fluorobenzyl)amino)-2-oxoethyl)-3-cyclopropylureido)imidazo[1,5-a]pyridine-1-carboxamide]",100 to 1000 nM,–
"NC(=O)c1nn(CC(=O)N(CC(=O)NCc2cccc(Cl)c2F)Cc2ccsc2)c2ccccc12 [Example 27, 1-(2-((2-((3-chloro-2-fluorobenzyl)amino)-2-oxoethyl)(thiophen-3-ylmethyl)amino)-2-oxoethyl)-1H-indazole-3-carboxamide]",1000 to 10000 nM,–
"CCOC(=O)CC(N(CC(=O)NCc1cccc(Cl)c1F)C(=O)Cn1nc(C(N)=O)c2ccccc21)C(F)(F)F (centres unmarked) [Example 77, ethyl 3-(2-(3-carbamoyl-1H-indazol-1-yl)-N-(2-((3-chloro-2-fluorobenzyl)amino)-2-oxoethyl)acetamido)-4,4,4-trifluorobutanoate]",1000 to 10000 nM,–
"CC(CCF)N(CC(=O)NCc1cccc(Cl)c1F)C(=O)Cn1nc(C(N)=O)c2ccccc21 (centres unmarked) [Example 60, 1-(2-((2-((3-chloro-2-fluorobenzyl)amino)-2-oxoethyl)(4-fluorobutan-2-yl)amino)-2-oxoethyl)-1H-indazole-3-carboxamide]",100 to 1000 nM,–
"NC(=O)c1nn(CC(=O)N(CC(=O)NCc2cccc(Cl)c2F)C2CC2)c2cc(Cl)ccc12 [Example 85, 6-chloro-1-(2-((2-((3-chloro-2-fluorobenzyl)amino)-2-oxoethyl)(cyclopropyl)amino)-2-oxoethyl)-1H-indazole-3-carboxamide]",–,100 to 1000 nM
"CC(=O)c1nc(CC(=O)N(CC(=O)NCc2cccc(Cl)c2F)C2CC2)c2ccccn12 [Example 137, 2-(3-acetylimidazo[1,5-a]pyridin-1-yl)-N-(2-((3-chloro-2-fluorobenzyl)amino)-2-oxoethyl)-N-cyclopropylacetamide]",1000 to 10000 nM,–
"CC(CC(=O)O)N(CC(=O)NCc1cccc(Cl)c1F)C(=O)Cn1nc(C(N)=O)c2ccccc21 (centres unmarked) [Example 74, 3-(2-(3-carbamoyl-1H-indazol-1-yl)-N-(2-((3-chloro-2-fluorobenzyl)amino)-2-oxoethyl)acetamido)butanoic acid]",1000 to 10000 nM,–
